Here are results for one molecule from patent US20260242390A1, “TOTAL SYNTHESES OF PORTIMINE A AND ANALOGUES THEREOF AS SMALL MOLECULE MODULATORS OF NMD3” (priority 2023, published 2026).

In one test the test system is HeLa. Kind of test: Broad cell line profiling, HeLa. In kind it is cell-based. The conditions noted are these: Homo sapiens, Cervical Adenocarcinoma, read-out: PA IC50. An excerpt: (§1) • A panel of human and mouse cancer cell types used to assess the breadth of PA activity, including multiple therapy resistant metastatic mesenchymal tumor cell lines and primary glioblastoma patient-derived metastatic stem/tumor initiating cell populations.

In another test the test system is 4T1. Kind of test: Broad cell line profiling, 4T1. It counts as cell-based. The settings on record: 4T1, Mouse Mammary Carcinoma; read-out: PA IC50.
From the text: as §1

For a further test, the system named is HT-1080 fibrosarcoma. The test is described as follows: HT-1080 Tumor Xenograft Model. In kind it is in vivo, mouse. The settings on record: 0.3 or 1.0 mg/kg, i.p. An excerpt: FIG. 9. […] (A) Systemic Portimine A in MC38 Syngeneic Tumor Xenograft Model; and (B) Systemic Portimine A in HT-1080 Tumor Xenograft Model.
Preliminary cell-based target engagement studies, based on compound washout, indicates PA is fast acting with <1 hr of exposure resulting in minimal loss of potency. Cmax-driven pharmacology and facile synthetic access to material enabled the evaluation of PA in both a syngeneic (MC38 colon carcinoma) and a human metastatic mesenchymal (HT-1080 fibrosarcoma) mouse tumor xenograft model. […] Metabolic stability represents an opportunity for an additional IP position.
• 1) Portimine A and its functional analogs show stereo-selective acute toxicity in cancer cells (FIG. 1). […] (B) Structure of portimine related analogs: phenyl-portimine A (Ph-PA, 36) and epi-portimine A (ePA, 38). Structure of fully functionalized portimine A-based epimeric probe pair: portimine A-diazirine-alkyne (PA-DA, 35-2) and epi-portimine A-diazirine-alkyne (ePA-DA, 35-1). (C) Cell viability analysis of portimine A and analogs. Jurkat cells were treated with increasing concentrations of portimine A and analogs for 24 hours. All presented data as mean of biological replicated experiments (n=3). […] Jurkat cells were treated with portimine A or analogs for 12 hours at 10 nM. […]

`C=CC1=C[C@@H]2[C@@H]3O[C@]4(CC[C@H](O4)C(C)C[C@@H](O)C3=O)CC(O)C3=NCC[C@@]32CC1` (stereo partly drawn) [PA, portimine A]: the IC50 in the test on HeLa worked out at 1.6 nM; in the test with 4T1, 0.63 nM. The “anti-tumor activity, HT-1080 fibrosarcoma xenograft model” value in the test on HT-1080 fibrosarcoma is listed as “Potent anti-tumor activity”.
